From PubChem BioAssay (NCI)
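These data come from cells grown in 96-well plates and exposed to compound for 48 hours at five concentrations. The concentration for 50% growth inhibition is given as GI50. TGI: concentration producing complete growth inhibition.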

Tests used:
Assay in all cases: NCI-60 cell line screen, 48 h
786-0 renal = test system: 786-0 renal
A498 renal = test system: A498 renal
A549 NSCLC = test system: A549 NSCLC
ACHN renal = test system: ACHN renal
BT-549 breast = test system: BT-549 breast
CAKI-1 renal = test system: CAKI-1 renal
CCRF-CEM leukemia = test system: CCRF-CEM leukemia
COLO 205 colon = test system: COLO 205 colon
DU-145 prostate = test system: DU-145 prostate
EKVX NSCLC = test system: EKVX NSCLC
HCC-2998 colon = test system: HCC-2998 colon
HCT-116 colon = test system: HCT-116 colon
HCT-15 colon = test system: HCT-15 colon
HL-60(TB) leukemia = test system: HL-60(TB) leukemia
HOP-62 NSCLC = test system: HOP-62 NSCLC
HOP-92 NSCLC = test system: HOP-92 NSCLC
HS 578T breast = test system: HS 578T breast
HT29 colon = test system: HT29 colon
IGROV1 ovarian = test system: IGROV1 ovarian
K-562 leukemia = test system: K-562 leukemia
KM12 colon = test system: KM12 colon
LOX IMVI melanoma = test system: LOX IMVI melanoma
M14 melanoma = test system: M14 melanoma
MALME-3M melanoma = test system: MALME-3M melanoma
MCF7 breast = test system: MCF7 breast
MDA-MB-231 breast = test system: MDA-MB-231 breast
MDA-MB-435 = test system: MDA-MB-435
MOLT-4 leukemia = test system: MOLT-4 leukemia
NCI-H226 lung = test system: NCI-H226 lung

In the case of CN(Cc1ccccc1)c1ccc(CO)c(Cl)c1, the GI50 (786-0 renal) was 15.7 µM, the TGI (786-0 renal) was over 100 µM and the GI50 (A498 renal) was 0.0652 µM. The TGI (A498 renal) was 0.212 µM, the GI50 (A549 NSCLC) was 4.74 µM and the TGI (A549 NSCLC) was 32.5 µM. For the same compound, the GI50 (ACHN renal) was 57.2 µM, the TGI (ACHN renal) was over 100 µM and the GI50 (BT-549 breast) was 21.1 µM. The TGI (BT-549 breast) was over 100 µM, the GI50 (CAKI-1 renal) was 2.93 µM and the TGI (CAKI-1 renal) was 50.9 µM. It also gave a GI50 (CCRF-CEM leukemia) of 32.5 µM, a TGI (CCRF-CEM leukemia) of over 100 µM and a GI50 (COLO 205 colon) of 7.19 µM. It also gave a TGI (COLO 205 colon) of 22.5 µM, a GI50 (DU-145 prostate) of 27.8 µM and a TGI (DU-145 prostate) of over 100 µM. The GI50 (EKVX NSCLC) was 22 µM, the TGI (EKVX NSCLC) was 98.8 µM and the GI50 (HCC-2998 colon) was 13 µM. The TGI (HCC-2998 colon) was 51.9 µM, the GI50 (HCT-116 colon) was 0.533 µM and the TGI (HCT-116 colon) was 15.1 µM. The GI50 (HCT-15 colon) was 25.3 µM, the TGI (HCT-15 colon) was over 100 µM and the GI50 (HL-60(TB) leukemia) was 17.4 µM. The TGI (HL-60(TB) leukemia) was 80 µM, the GI50 (HOP-62 NSCLC) was 6.41 µM and the TGI (HOP-62 NSCLC) was over 58.6 µM. The GI50 (HOP-92 NSCLC) was 3.9 µM, the TGI (HOP-92 NSCLC) was 37.4 µM and the GI50 (HS 578T breast) was 35.2 µM. For the same compound, the TGI (HS 578T breast) was over 100 µM, the GI50 (HT29 colon) was 9.63 µM and the TGI (HT29 colon) was over 81.4 µM. For the same compound, the GI50 (IGROV1 ovarian) was 0.467 µM, the TGI (IGROV1 ovarian) was 3.01 µM and the GI50 (K-562 leukemia) was 9.81 µM. For the same compound, the TGI (K-562 leukemia) was over 100 µM, the GI50 (KM12 colon) was 22.6 µM and the TGI (KM12 colon) was over 86.5 µM. It also gave a GI50 (LOX IMVI melanoma) of 45.8 µM, a TGI (LOX IMVI melanoma) of over 100 µM and a GI50 (M14 melanoma) of 29 µM. For the same compound, the TGI (M14 melanoma) was over 100 µM, the GI50 (MALME-3M melanoma) was 79 µM and the TGI (MALME-3M melanoma) was over 100 µM. The GI50 (MCF7 breast) was 1.49 µM, the TGI (MCF7 breast) was 40.3 µM and the GI50 (MDA-MB-231 breast) was 34.1 µM. The TGI (MDA-MB-231 breast) was over 100 µM, the GI50 (MDA-MB-435) was 17.6 µM and the TGI (MDA-MB-435) was 59.2 µM. The GI50 (MOLT-4 leukemia) was 26.4 µM, the TGI (MOLT-4 leukemia) was over 82.6 µM and the GI50 (NCI-H226 lung) was 0.142 µM. For the same compound, the TGI (NCI-H226 lung) was 0.324 µM.
